# Reference: US9040542B2, “Solid forms of gyrase inhibitor (R)-1-ethyl-3-[6-fluoro-5-[2-(1-hydroxy-1-methyl-ethyl)pryimidin-5-yl]-7-(tetrahydrofuran-2-yl)-1H-benzimidazol-2-yl]urea” (priority 2011, dated 2015)
# Tests used:
# S. aureus DNA gyrase = S. aureus DNA gyrase (Staphylococcus aureus, UniProt P0A0K8); assay: DNA Gyrase ATPase Assay; type: biochemical; conditions: 30° C., read-out: Ki, Inhibition of S. aureus DNA Gyrase
# Protocol: The ATP hydrolysis activity of S. aureus DNA gyrase is measured by coupling the production of ADP through pyruvate kinase/lactate dehydrogenase to the oxidation of NADH. This method has been described previously (Tamura and Gellert, 1990, J. Biol. Chem., 265, 21342).
# ATPase assays are carried out at 30° C. in buffered solutions containing 100 mM TRIS pH 7.6, 1.5 mM MgCl2, 150 mM KCl. The coupling system contains final concentrations of 2.5 mM phosphoenol pyruvate, 200 μM nicotinamide adenine dinucleotide (NADH), 1 mM DTT, 30 ug/ml pyruvate kinase, and 10 ug/ml lactate dehydrogenase. The enzyme (90 nM final concentration) and a DMSO solution (3% final concentration) of a compound is added. The reaction mixture is allowed to incubate for 10 minutes at 30° C. The reaction is initiated by the addition of ATP to a final concentration of 0.9 mM, and the rate of NADH disappearance is monitored at 340 nanometers over the course of 10 minutes. The Ki and IC50 values are determined from rate versus concentration profiles.
# S. aureus TopoIV enzyme = S. aureus TopoIV enzyme (Staphylococcus aureus, UniProt P0C1S7); assay: DNA Topo IV ATPase Assay; type: biochemical; conditions: 30° C., read-out: Ki, Inhibition of S. aureus DNA Topo IV
# Protocol: The conversion of ATP to ADP by S. aureus TopoIV enzyme is coupled to the conversion of NADH to NAD+, and the progress of the reaction is measured by the change in absorbance at 340 nm. TopoIV (64 nM) is incubated with the selected compound (3% DMSO final) in buffer for 10 minutes at 30° C. The buffer consists of 100 mM Tris 7.5, 1.5 mM MgCl2, 200 mM K•Glutamate, 2.5 mM phosphoenol pyruvate, 0.2 mM NADH, 1 mM DTT, 5 μg/mL linearized DNA, 50 μg/mL BSA, 30 μg/mL pyruvate kinase, and 10 μg/mL lactate dehyrodgenase (LDH). The reaction is initiated with ATP, and rates are monitored continuously for 20 minutes at 30° C. on a Molecular Devices SpectraMAX plate reader. The inhibition constant, Ki, and the IC50 are determined from plots of rate vs. concentration of selected compound fit to the Morrison Equation for tight binding inhibitors.
# [1] = Stability data of solid forms on storage; type: physicochemical
compound,measurement,setting,value
"CCNC(=O)Nc1nc2cc(-c3cnc(C(C)(C)O)nc3)c(F)c([C@H]3CCCO3)c2[nH]1 [Compound 23, 1-ethyl-3-[6-fluoro-5-[2-(1-hydroxy-1-methyl-ethyl)pyrimidin-5-yl]-7-[(2R)-tetrahydrofuran-2-yl]-1H-benzimidazol-2-yl]urea]",Ki,S. aureus DNA gyrase,9 nM
same,Ki,S. aureus TopoIV enzyme,12 nM
same,stability of solid form,[1]; 40° C. with relative humidity of up to 75%,stable for at least one month
same,chemical and physical stability,"[1]; all storage conditions (25° C./60% RH, 40° C./ambient, and 40° C./75% RH), 1 month timepoint",chemically and physically stable
